Here are results for three molecules from US20130203635A1, “NUCLEIC ACID LIGATION METHOD” (priority 2012, published 2013).

The subject of series [1] is Escherichia coli RtcB ligase. The series is described as follows: E. coli RtcB RNA ligation assay (3′-P and 5′-OH termini, urea-polyacrylamide gel). Type of series: biochemical. The source says: FIG. 1. […] (A) RNA ligation substrate that mimics a broken tRNA anti-codon. FAM label allows visualization in a urea-polyacrylamide gel. […] (B) Cofactor- and metal-dependence of ligation. Reactions contain manganese, except in the “—Mn^2+” lane. The lane labeled “C78A” is a ligation reaction performed with RtcB that has a C78A substitution within the predicted metal binding site. (C) Ligation assays using GTP analogues as cofactors. […] (E) RNA termini specificity of RtcB. Modifications to the ligatable ends of the tRNA mimic substrate were made as indicated and tested in ligation reactions.
To assay for ligation, we initially used two single-stranded RNA (ssRNA) oligos that were each 10 nucleotides in length. The 5′ RNA fragment was labeled with 6-carboxyfluorescein (FAM) at its 5′ end and phosphorylated at its 3′ end. The 3′ RNA fragment had hydroxyl groups at each end. We intended to convert the 3′-P into a 2′,3′-cyclic phosphate by incubation with RtcA and ATP, so as to produce a suitable substrate for RtcB.
These reactions were performed with high concentrations of GTP analogues to ensure saturation of RtcB.
We investigated the RNA termini structure requirements for ligation by modifying the ends of our tRNA mimic substrate. First, all four combinations of either a phosphate or hydroxyl group at each termini were sampled while maintaining a 2′-OH on the 5′ side of the ligation junction. […] Next, the importance of the terminal ribose 2′-OH for ligation was probed by replacing this hydroxyl group with either hydrogen (2′-H) or fluorine (2′-F).

The subject of series [2] is P. horikoshii RtcB. The series is described as follows: P. horikoshii RtcB RNA ligation assay. Type of series: biochemical, Pyrococcus horikoshii. The following applies: Archease 0.25 μM, NTP 100 μM, RtcB 5 μM (FIG. 10B, 11B). The text has this: FIG. 2. P. horikoshii RtcB catalyzed ligation of 3′-P and 5′-OH RNA termini. P. horikoshii RtcB requires Mn^2+ and GTP for ligation. […] The lane labeled “2′-deoxy” is a ligation reaction using the tRNA mimic substrate but with a 3′-P/2′-H termini on its 5′ fragment. The lane labeled “C98A” is a ligation reaction with RtcB that has a C98A substitution within the predicted metal-binding site.
RtcB from the archaeal domain of life likewise catalyzes the GTP-dependent ligation of 3′-P and 5′-OH RNA termini. The crystal structure of RtcB from a hyperthermophilic archaeon, Pyrococcus horikoshii, was determined as part of a structural genomics project (21). […] The P. horikoshii homologue has 29% amino-acid sequence identity to E. coli RtcB, and 49% identity to the human ligase (HSPC117). To investigate if RtcB from archaea catalyzes the GTP-dependent ligation of 3′-P and 5′-OH RNA termini, we synthesized a P. horikoshii rtcB gene and produced soluble enzyme in E. coli. […] The P. horikoshii ligase also required a 2′-OH on the terminal nucleotide of the 5′ RNA fragment.
RNA Ligation Assay. Ligation assays with single-stranded RNA as the substrate used two 10-nt oligonucleotides that were synthesized by Integrated DNA Technologies (15). […] The 3′ RNA fragment had hydroxyl groups on each end. The sequence of the 5′ fragment was FAM-5′-AAAUAACAAA-3′-P (SEQ ID NO:6) and the sequence of the 3′ RNA fragment was 5′-AAAUAACAAA-3′ (SEQ ID NO:6). Ligation reactions were performed in 10-μL solutions consisting of 50 mM Bis-Tris buffer, pH 7.0, containing NaCl (300 mM), […] (0.25 mM), GTP (100 μM), each RNA fragment (1 μM), and RtcB (10 μM). Reaction mixtures were incubated at 70° C. for 1 h prior to the addition of water (40 μL) and RNA-loading buffer (50 μL). Reaction mixtures were subjected to electrophoresis and visualized as previously described in the previous examples.
The ability of Archease to activate P. horikoshii RtcB was tested in reactions using ssRNA substrates. Ligation reactions included a 10-nt 5′ RNA fragment and a 10-nt 3′ RNA fragment. […] The 3′ RNA fragment had hydroxyl groups on each end. The sequence of the 5′ fragment was FAM-5′-AAAUAACAAA-3′-P (SEQ ID NO:6) and the sequence of the 3′ RNA fragment was 5′-AAAUAACAAA-3′ (SEQ ID NO:6). Ligation reactions were performed in 50-μL solutions consisting of 50 mM Tris-HCl buffer, pH 7.4, containing NaCl (300 mM), MnCl2 (0.25 mM), GTP (100 μM), RNA fragments (100 pmol of each), and P. horikoshii RtcB (5 μM).
Ligation reaction mixtures were set up as described above, and each was divided into two tubes. No Archease was added to one set of reaction mixtures (FIG. 10A), and Archease was added to a concentration of 0.25 μM to the other set (FIG. 10B). […] Archease had no effect on ligation reactions that used 2′-F RNA.
We tested the ability of Archease to enable RtcB to use cofactors other than GTP or dGTP. Ligation reaction mixtures with RtcB were set up as described above, and each was divided into two tubes. No Archease was added to one set of reaction mixtures (FIG. 11A), and Archease was added to a concentration of 0.25 μM to the other set (FIG. 11B). The various NTPs were included at a concentration of 100 μM.

The target of a further series is E. coli RtcA (Escherichia coli, UniProt P46849). Particulars: read-out: ATP KM; cited from earlier work.
E. coli RtcA, sequence (P46849 whole entry): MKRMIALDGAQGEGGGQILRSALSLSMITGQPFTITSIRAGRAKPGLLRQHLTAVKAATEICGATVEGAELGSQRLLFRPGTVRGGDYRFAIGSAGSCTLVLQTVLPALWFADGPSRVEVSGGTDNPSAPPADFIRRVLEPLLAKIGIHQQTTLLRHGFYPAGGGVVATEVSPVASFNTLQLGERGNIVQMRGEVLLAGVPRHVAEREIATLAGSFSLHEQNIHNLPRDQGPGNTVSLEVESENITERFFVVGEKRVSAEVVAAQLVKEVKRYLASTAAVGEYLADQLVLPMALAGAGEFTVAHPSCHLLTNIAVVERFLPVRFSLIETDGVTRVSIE
The target of another series is human RtcA (Homo sapiens, UniProt O00442). The following applies: read-out: ATP KM; cited from earlier work.
human RtcA, sequence (O00442 whole entry): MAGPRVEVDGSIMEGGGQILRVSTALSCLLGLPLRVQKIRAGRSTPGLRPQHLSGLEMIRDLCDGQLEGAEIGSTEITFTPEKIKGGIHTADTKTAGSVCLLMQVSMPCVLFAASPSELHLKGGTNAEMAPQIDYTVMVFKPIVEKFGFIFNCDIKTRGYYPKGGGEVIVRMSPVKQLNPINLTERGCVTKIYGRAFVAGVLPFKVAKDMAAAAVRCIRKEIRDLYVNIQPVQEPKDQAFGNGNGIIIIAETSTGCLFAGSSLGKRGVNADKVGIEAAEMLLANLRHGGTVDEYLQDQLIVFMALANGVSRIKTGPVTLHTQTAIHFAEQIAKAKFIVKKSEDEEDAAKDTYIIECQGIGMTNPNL
Series [3] has as its system P. horikoshii RtcB. Nature of the series: 14C-labeled GTP binding assay. Further details: species or system Pyrococcus horikoshii. As for the experimental part: Structure of the RtcB-Histidine-GMP Covalent Intermediate. To determine the optimal reaction conditions that enable formation of the RtcB-GMP covalent intermediate, ^14C-labeled GTP binding studies were performed (7). […] Under these conditions, the maximal GMP:RtcB molar ratio was determined to be (0.76±0.02):1. No binding of GTP to RtcB was detected in the absence of Mn(II). Using these reaction conditions, we formed the RtcB-GMP intermediate and removed unbound Mn(II), GTP, and PPi by gel-filtration chromatography. The protein was concentrated to 200 μM, and crystals of this complex diffracted to a resolution of 2.4 Å.
^14C-labeled GTP Binding Assays. […] Absorbance readings at A260 and A280 were obtained for each fraction. The protein fractions have high A280 readings, whereas the fractions with free GTP have higher A260 readings. In fractions containing protein, the RtcB concentrations were calculated from the A280 reading using an extinction coefficient of 62,340 M^−1 cm^−1 (ExPASy). The concentration of [8-^14C]GTP in the protein fractions was determined by liquid scintillation counting. Each 0.5-mL fraction was mixed with 3.5 mL of Ultima Gold MV liquid scintillation cocktail (Perkin Elmer) in a 4-mL vial, and counts were read on a MicroBeta TriLux liquid scintillation counter (Perkin Elmer). […] Under these conditions, the GTP:RtcB molar ratio was determined to be (0.76±0.02):1. […]

Series [4] has as its target T1, Pyrococcus horikoshii Archease.
T1 chain: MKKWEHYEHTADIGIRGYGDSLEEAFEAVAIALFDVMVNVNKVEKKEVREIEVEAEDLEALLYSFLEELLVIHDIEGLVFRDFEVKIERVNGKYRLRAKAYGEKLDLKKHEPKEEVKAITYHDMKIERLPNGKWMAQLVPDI

As usually defined, the Km is the substrate concentration at which the rate is half of its maximum. As to `Nc1ncnc2c1ncn2[C@@H]1O[C@H](COP(=O)(O)OP(=O)(O)OP(=O)(O)O)[C@@H](O)[C@H]1O` [ATP, adenosine-5′-triphosphate], the “use as cofactor in ligation of 3′-P and 5′-OH RNA termini” value in series [1] (in place of GTP, tRNA anticodon stem-loop mimic substrate, with Mn2+ (FIG. 1B, 1C)) is “unable to substitute for GTP”. Besides, the “use as cofactor in RNA ligation with Archease” value in the series on P. horikoshii RtcB [2] is recorded as “enables RtcB to use ATP”. Further, the Km was 20 µM on E. coli RtcA and 6 µM on human RtcA.

Consider `Nc1nc2c(ncn2[C@@H]2O[C@H](COP(=O)(O)OP(=O)(O)OP(=O)(O)O)[C@@H](O)[C@H]2O)c(=O)[nH]1` [GTP, guanosine-5′-triphosphate], for which the Km in series [1] (titration with GTP, tRNA mimic substrate (FIG. 1D)) is below 16 µM. Moreover, the “use as cofactor in RNA ligation with Archease” value in the series on P. horikoshii RtcB [2] is “selectively activated”. Further, the “maximal GMP:RtcB (GTP:RtcB) molar ratio” value in the series with P. horikoshii RtcB [3] (RtcB 100 μM, GTP 1 mM, MnCl2 2 mM, 70° C. for 45 min) came out at 0.76±0.02. The “binding of GTP to RtcB” value in the series with P. horikoshii RtcB [3] (in the absence of Mn(II)) is given as “No binding”.

B1: Pyrococcus horikoshii 2',3'-cyclic phosphate RNA ligase (RtcB) (protein)
chain: MVVPLKRIDKIRWEIPKFDKRMRVPGRVYADEVLLEKMKNDRTLEQATNVAMLPGIYKYSIVMPDGHQGYGFPIGGVAAFDVKEGVISPGGIGYDINCGVRLIRTNLTEKEVRPRIKQLVDTLFKNVPSGVGSQGRIKLHWTQIDDVLVDGAKWAVDNGYGWERDLERLEEGGRMEGADPEAVSQRAKQRGAPQLGSLGSGNHFLEVQVVDKIFDPEVAKAYGLFEGQVVVMVHTGSRGLGHQVASDYLRIMERAIRKYRIPWPDRELVSVPFQSEEGQRYFSAMKAAANFAWANRQMITHWVRESFQEVFKQDPEGDLGMDIVYDVAHNIGKVEEHEVDGKRVKVIVHRKGATRAFPPGHEAVPRLYRDVGQPVLIPGSMGTASYILAGTEGAMKETFGSTCHGAGRVLSRKAATRQYRGDRIRQELLNRGIYVRAASMRVVAEEAPGAYKNVDNVVKVVSEAGIAKLVARMRPIGVAKG
Take B1: the “RNA ligation (urea-polyacrylamide gel of FAM-labeled ssRNA substrate and product)” value in series [4] was “the addition of Archease at concentrations that are lower than that of RtcB or RNA enhanced catalysis of RNA ligation”.
